For experiment [1], the system named is seven-member synthetic community including the pathogen E. faecalis. In words: E. faecalis-containing synthetic community, community growth AUC (Example 7). It counts as cell-based. The source says:
(§1) Heat maps show median area under the growth curve (AUC) of the seven-member synthetic community including the pathogen E. faecalis. The numbers within the heat map represent the total number of all E. faecalis viable cells for each erythromycin-antidote combination as determined by enumerating of E. faecalis colony forming units after plating on selective medium. All drug concentrations are in μM. n. d.=not detectable.
(§2) The inventors exposed synthetic communities that contained the intestinal gut pathogen E. faecalis to erythromycin, and evaluated rescue of gut commensals and simultaneous killing of the pathogen in the presence of antidotes.

Experiment [2] deals with B. vulgatus. The experiment can be described thus: Growth curves and time-lapse microscopy under erythromycin. Conditions: 15 μg/ml erythromycin (5-fold MIC), time-lapse microscopy. In kind it is cell-based, Bacteroides vulgatus. Here is the method:
(§3) Microscopy: For live/dead imaging, stained cells were washed twice in 0.85% NaCl before being spotted on 0.85% NaCl+1% agarose pads between a glass slide and a coverslip. For time-lapse imaging, cells were precultured as described in the growth conditions section. […] Slides were sealed with valap and taken outside of the chamber for imaging. The imaging was performed using a Nikon Eclipse Ti inverted microscope, equipped with a Nikon DS-Qi2 camera, a Nikon Plan Apo Lambda 60× oil Ph3 DM phase contrast objective and a Nikon HC mCherry filter set (Ex 562/40; DM 593; BA 641/75) to detect propidium iodide fluorescence. Images were acquired with the NIS-Elements AR4.50.00 software and processed with Fiji v.2.0.0-rc-68/1.52 h.
(§4) Growth curves: Cells were precultured as described in the growth conditions section. Then, cells were diluted to an OD578=0.01 in a 96-well plate sealed with a breathable membrane (Breathe-Easy®) and grown for 2 h. Next, erythromycin was added to the culture to a final concentration of 15 μg/ml (5-fold MIC) and growth curves were acquired for 20 h using a microplate spectrophotometer (EON, Biotek) by measuring the OD578 every hour after 30 sec of linear shaking.

The test system of experiment [3] is Streptococcus groups A, B, C & G. Particulars: cited from earlier work.
Another experiment relates to S. pneumoniae. Conditions: cited from earlier work.
The subject of the next experiment is Staphylococcus. Conditions: cited from earlier work.
For another experiment, the system named is B. uniformis. In words: Growth curves and time-lapse microscopy under erythromycin. In kind it is cell-based, Bacteroides uniformis. Particulars: 15 μg/ml erythromycin (5-fold MIC), time-lapse microscopy. Here is the method: as §3, §4
Experiment [4] concerns E. faecalis. The experiment can be described thus: E. faecalis-containing synthetic community, E. faecalis CFU on selective medium (Example 7). It counts as cell-based, Enterococcus faecalis.
Source text: as §1, §2

Experiment [5] deals with abundant gut commensal species. The experiment can be described thus: Checkerboard assays on further abundant gut commensals. It counts as cell-based. Particulars: for tested abundant gut commensal species whose growth is rescued: antidote 5-40 μm, clinically relevant erythromycin concentrations; for counteracting erythromycin on other abundant gut commensals: checkerboard with erythromycin. The source says: (§5) Checkerboard assays for anaerobic commensals: Validated antagonists were further investigated in 8×8 checkerboard assays, where both antibiotics and antagonists were titrated against each other. Such assays were first performed for the commensals that were originally screened (i. e. B. vulgatus and B. uniformis—4 replicates) and later expanded towards 6 further gut microbes (B. caccae, B. fragilis NT, B. ovatus, B. thetaiotaomicron, P. copri, P. distasonis—2 replicates). For vertical gradients, 2-fold serial dilutions of the antagonists were prepared first in 100× in DMSO and diluted in MGAM as described above (section ‘Validation of microbiome-protective antagonists’). Horizontal antibiotic dilution series were freshly prepared in MGAM at 4× final concentration in equidistant concentration steps. Both, vertical and horizontal dilution series were combined (50 μl of the antagonist gradients (2×) and 25 μl of the antibiotic gradients (4×)) in 96 well plates. Plates were pre-reduced under anaerobic conditions overnight, inoculated with 25 μl of diluted overnight culture (at 4× starting OD) and sealed with breathable membrane (Breathe-Easy®). Bacterial growth was monitored once per hour for 24 hours after 30 sec linear shaking (Eon+Biostack 4, Biotek) under anaerobic conditions. Growth curves were converted into normalized AUCs as described using in-plate controls to define unperturbed growth.

For experiment [6], the system named is species of the order Bacteroidales. In words: Antidote vs azithromycin across seven gut Bacteroidales (Example 4). Conditions: combination with azithromycin. It counts as cell-based. The method, then: The antidotes dicumarol (first column), benzbromarone (second column) and tolfenamic acid (third column) were tested for their efficacy in antagonizing the macrolide antibiotic azithromycin across seven prevalent and abundant gut Bacteroidales (B. vulgatus, B. fragilis NT, B. thetaiotaomicron, P. copri, B. caccae, B. ovatus, P. distasonis). […] All drug concentrations are in μM.
In particular, they aimed at testing, whether these antidotes can also protect from other macrolides such as azithromycin, a clinically more relevant antibiotic.

Experiment [7] relates to E. faecium. In words: Antidote with macrolide on enterococci (Example 6). In kind it is cell-based.
Experiment [8] deals with B. vulgatus. The experiment can be described thus: 8x8 checkerboard assay for anaerobic commensals (antibiotic vs antagonist). It counts as cell-based, Bacteroides vulgatus. Particulars: for rescue of B. vulgatus growth from erythromycin: combination with erythromycin.
Source text: as §5

Experiment [9] deals with B. vulgatus. The experiment can be described thus: Prestwick library screen for microbiome-protective antibiotic antagonists (growth AUC z-scores). It counts as cell-based, Bacteroides vulgatus. Particulars: z-score of normalized growth AUC, two replicates.
Experiment [10] concerns synthetic gut commensal community of seven human gut commensals. In words: Synthetic gut commensal community growth with macrolide and antidote (Example 5). In kind it is cell-based. Conditions: erythromycin and azithromycin. The source says:
Heat maps depict area under the growth curve (AUC) of a synthetic community consisting of seven human gut commensals. Shown is the median AUC of three individual replicates. All drug concentrations are in μM.
So far, antidote effects have only been analyzed in single or pure cultures. However, the human gut microbiome is a complex community of many different bacterial taxa that is usually not adequately mimicked in monocultures.

For experiment [11], the system named is B. vulgatus. In words: Validation of microbiome-protective antagonists (concentration-dependent growth rescue). It counts as cell-based, Bacteroides vulgatus. Particulars: antagonist gradient, normalized AUC >0.25 = growth rescue. The method, then:
Validation of microbiome-protective antagonists: In a first step, the inventors kept the erythromycin/doxycycline concentration constant (0.625 μM for erythromycin, 0.078 μM (B. vulgates)/0.039 μM (B. uniformis) for doxycycline) and tested concentration gradients of the potential antagonists with ranges depending on the antagonist's solubility. Compounds were purchased from independent vendors and dissolved at 100× starting concentration in DMSO. Eight 2-fold serial dilutions were prepared in 96-well plates with each row containing a different antagonist, sufficient control DMSO wells and wells with just the respective antibiotic (‘antibiotic-only’ control). These master plates were diluted in MGAM medium (50 μl) to 2×assay concentration and 25 μl freshly prepared antibiotic solution (4× test concentration) was added. Plates were pre-reduced overnight in an anaerobic chamber and inoculated with 25 μl of overnight cultures (prepared as described under “Growth conditions”) to reach a starting OD578 of 0.01 and 1% DMSO concentration. Growth was monitored hourly for 24 h after 30 sec of linear shaking. Experiments were performed in biological triplicates. For analysis, growth curves were converted into normalized AUCs (see above). The inventors accounted for residual growth in the presence of the antibiotic by subtracting the median normalized AUCs of the ‘antibiotic-only’ control per plate.

For another experiment, the system named is Staphylococcus aureus. In words: Checkerboard assays for pathogens under aerobic conditions. In kind it is cell-based. Particulars: for effect on the potency of erythromycin: Staphylococcus aureus, aerobic. Here is the method: (§6) Checkerboard assays for pathogens under aerobic conditions: For three pathogens (S. aureus Newman ATCC 13420, S. aureus subsp. aureus Rosenbach 1884 DSM20231 and E. faecium ATCC19434) 8×8 checkerboard assays were performed in transparent 384 well plates (Greiner BioOne GmbH), with each well containing 30 μl (50 μl for S. pneumoniae) in total. S. aureus strains were grown in tryptic soy broth, E. faecium in BHI medium. Antagonistic drug concentrations were 2-fold distant. Cell were inoculated at initial OD595 nm 0.01 from an overnight culture. Plates were sealed with breathable membranes (Breathe-Easy), incubated at 37° C. (Cytomat 2, Thermo Scientific) with continuous shaking and OD595 nm was measured every 30 minutes for 16 hours in a Filtermax F5 multimode plate reader (Molecular Devices). Growth was evaluated at the transition to stationary phase (9 hours for S. aureus, 12 hours for E. faecium). All experiments were done at least in 2 biological replicates and 2 technical replicates. For S. pneumoniae […], the inventors only tested concentration gradients of the potential antagonists in constant concentration of the antibiotics in BHI medium.

The subject of experiment [12] is E. faecalis. In words: Antidote with macrolide on enterococci (Example 6). It counts as cell-based, Enterococcus faecalis. The source says:
Heat maps show median area under the growth curve (AUC) of three biologically independent replicates. […] All drug concentrations are in μM.
Here, the inventors expanded testing towards additional antidotes, and included the intestinal human pathogen Enterococcus faecalis.

In another experiment the test system is Streptococcus pneumoniae. The experiment can be described thus: Antagonist concentration gradients at constant antibiotic concentration, aerobic. It counts as cell-based. Here is the method:
as §6

Experiment [13] concerns E. faecium. The experiment can be described thus: Checkerboard assays for pathogens under aerobic conditions. It counts as cell-based. The method, then:
as §6

[14] abbreviates: erythromycin 1.15 μM + 40 μM dicumarol or 20 μM benzbromarone.
Where [15] appears, read: Erythromycin 0.625 μM + 20 μM drug.

Values after ≈ are worked out from the molar mass of the structure shown. “Also recorded” adds a separate entry of the source.

`CC[C@H]1OC(=O)[C@H](C)[C@@H](O[C@H]2C[C@@](C)(OC)[C@@H](O)[C@H](C)O2)[C@H](C)[C@@H](O[C@@H]2O[C@H](C)C[C@H](N(C)C)[C@H]2O)[C@](C)(O)C[C@@H](C)C(=O)[C@H](C)[C@@H](O)[C@]1(C)O` [Erythromycin, erythromycin]: in [1] (erythromycin 1.15 μM alone), the “community growth (AUC)” value is listed as “partially inhibited”. Besides, the “cell morphology / lysis” value in the experiment with B. vulgatus [2] is “cell shape defects, including blebbing, cytoplasmic shrinkage, and ultimately cell lysis”; in the experiment with B. uniformis, “cell shape defects, including blebbing, cytoplasmic shrinkage, and ultimately cell lysis”. Besides, the values for the MIC breakpoint (in [3]; with S. pneumoniae; with Staphylococcus) were 0.25 µg/mL (≈ 0.341 µM), 0.25 µg/mL (≈ 0.341 µM) and 1 µg/mL (≈ 1.36 µM), respectively. In addition, the “E. faecalis cells in the community” value in the experiment with E. faecalis [4] (erythromycin 1.15 μM alone) is ~9×10^5 cells.

For the compound `O=c1oc2ccccc2c(O)c1Cc1c(O)c2ccccc2oc1=O` [Dicumarol, 3,3′-Methylene-bis(4-hydroxycoumarin)], the “community growth (AUC)” value in [1] (setting [14]) is given as “the community is rescued”. In addition, the “rescue of the community despite erythromycin treatment” value in experiment [1] (erythromycin + antidote) was “rescue of the community”. Moreover, in experiment [5], the “tested abundant gut commensal species whose growth is rescued” value is recorded as 5/7. In addition, in experiment [5], the “counteracting erythromycin on other abundant gut commensals” value is on record as “able to counteract erythromycin on several species”. The “protection of Bacteroidales species from azithromycin” value in [6] is “can be Protected”. Besides, the “rescue from erythromycin or azithromycin treatment” value in the experiment with E. faecium [7] and in the experiment with E. faecalis [12] was “Neither dicumarol nor benzbromarone or tolfenamic acid could rescue” each time. Moreover, the “rescue of B. vulgatus growth from erythromycin” value with B. vulgatus [8] was “rescued; also recorded: can rescue the growth”. In addition, in the experiment with B. vulgatus [9] (setting [15]), the Mean z-score is 7.313. Moreover, in [10], the “protection (growth rescue) of synthetic gut commensal community from macrolide antibiotics” value is recorded as “can be Protected”. Besides, the E. faecalis counts entry in the experiment on E. faecalis [4] (setting [14]) is on record as “drop/are still found at below the detection limit”. Moreover, the “E. faecalis cells in community under erythromycin + antidote” value in the experiment on E. faecalis [4] (erythromycin + antidote) is reported as “efficiently inhibited”. Also, in the experiment with B. vulgatus [11] (Erythromycin 0.625 μM constant), the Validation entry is given as “TRUE”. For the same compound, the “effect on the potency of erythromycin” value in the experiment on Staphylococcus aureus and with Streptococcus pneumoniae was “did not affect the potency” each time.

Consider `Cc1c(Cl)cccc1Nc1ccccc1C(=O)O` [Tolfenamic acid], for which the “tested abundant gut commensal species whose growth is rescued” value in [5] was 5/7. The “counteracting erythromycin on other abundant gut commensals” value in experiment [5] was “able to counteract erythromycin on several species”. In addition, the “protection of Bacteroidales species from azithromycin” value in [6] is “can be Protected”. Besides, the “interaction with antibacterial effects of erythromycin/azithromycin” value in the experiment with E. faecium [7] and in the experiment with E. faecalis [12] was “synergized” each time. Besides, the “rescue from erythromycin or azithromycin treatment” value with E. faecium [7] and in the experiment with E. faecalis [12] was “Neither dicumarol nor benzbromarone or tolfenamic acid could rescue” each time. For the same compound, in the experiment with B. vulgatus [8] (combination with doxycycline), the “rescue of B. vulgatus growth from doxycycline” value is “able to protect”. For the same compound, the “rescue of B. vulgatus growth from erythromycin” value with B. vulgatus [8] was “able to protect; also recorded: can rescue the growth”. The Mean z-score is 4.000 with B. vulgatus [9] (Doxycycline 0.08 μM + 20 μM drug) and 7.381 with B. vulgatus [9] (setting [15]). The “protection (growth rescue) of synthetic gut commensal community from macrolide antibiotics” value in experiment [10] was “can be Protected”. Further, the Validation entry in the experiment with B. vulgatus [11] (Doxycycline 0.078 μM constant) and in the experiment with B. vulgatus [11] (Erythromycin 0.625 μM constant) was “TRUE” in each case. Also, the “drug interaction with erythromycin in checkerboard” value is listed as “neutral interactions” with Staphylococcus aureus (S. aureus, aerobic conditions) and “neutral interactions” in the experiment with E. faecium [13]. Besides, the “effect on the potency of erythromycin” value in the experiment with Staphylococcus aureus and with Streptococcus pneumoniae was “did not affect the potency” each time.

These data come from patent publication US20220387466A1, “COMPOUNDS AND PHARMACEUTICAL COMPOSITIONS FOR PREVENTION AND/OR TREATMENT OF DYSBIOSIS AND ANTIBACTERIAL ANTIDOTES FOR MICROBIOME-PROTECTION” (priority 2019, published 2022).
